According to patent US8729074B2, “Inhibitors of PI3 kinase” (Amgen Inc., priority 2009, dated 2014):

What was measured:
PI3Kα = PI3Kα (Homo sapiens (Human), UniProt P42336); assay: In vitro PI3 kinase enzyme assay (PI3K ATPLoss); format: biochemical; details: average if run more than once
Procedure: Recombinant Expression of PI3K Enzymes
Full length p110 subunits of PI3K α, β and δ, N-terminally labeled with polyHis tag, can be co-expressed with p85 with Baculo virus expression vectors in sf9 insect cells. P110/p85 heterodimers can be purified by sequential Ni-NTA, Q-HP, Superdex-100 chromatography. Purified α, β and δ isozymes can be stored at −20° C. in 20 mM Tris, pH 8, 0.2M NaCl, 50% glycerol, 5 mM DTT, 2 mM Na cholate. […] The γ isozyme can be purified by sequential Ni-NTA, Superdex-200, Q-HP chromatography. The γ isozyme can be stored frozen at −80° C. in NaH2PO4, pH 8, 0.2M NaCl, 1% ethylene glycol, 2 mM β-mercaptoethanol.
In Vitro PI3 Kinase Enzyme Assays (PI3K ATPLoss)
PI3K enzyme assays (alpha, beta, delta and gamma) can be performed in 25 μL with the above final concentrations of components in white polyproplyene plates. Phosphatidyl inositol phosphoacceptor, PtdIns(4,5)P2 (e.g., P4508) can be obtained from Echelon Biosciences, Salt Lake City, Utah. […] Test compounds can be dissolved in DMSO and diluted with three-fold serial dilutions. The compound in DMSO (1 μL) may be added per test well, and the inhibition relative to reactions containing no compound, with and without enzyme can be determined. After assay incubation at RT, the reaction can be stopped and residual ATP can be determined by addition of an equal volume of a commercial ATP bioluminescence kit (Perkin Elmer EasyLite, Perkin Elmer, Waltham, Mass.) according to the manufacturer's instructions, and detected using an Analyst GT luminometer.

[1] = test system: phosphorylation of Akt at Serine 473 in U87 MG cells; assay: pAkt AlphaScreen (U87 cell); format: cell-based; details: Homo sapiens, U-87 MG, 2 h; pAkt Ser473, U87 MG cells, compound two hours; average if run more than once
Procedure: pAkt AlphaScreen (U87 Cell)
The pAkt AlphaScreen® assay (PerkinElmer, Waltham, Mass.) determines whether there is phosphorylation of Akt at Serine 473 by recruitment of a phosphospecific antibody. This assay was performed using U87 MG cells. The U87 growth media consists of MEM (Gibco, Carlsbad, Calif.) supplemented with 10% FBS (Gibco), 1× Non-Essential Amino Acids (Gibco) and 1× Penicillin/Streptomycin/Glutamine (Gibco). The cells were maintained weekly using 0.05% Trypsin (Gibco) and replated in 150 mm TC—Treated Culture Dishes (Corning, Corning, N.Y.).
The first day of the assay, the adherent cells were trypsinized, media was added to the loose cells and cells were mixed to a homogenous mixture. 0.5 ml of the homogenous mixture was counted on the Beckman Coulter® Vi-CELL™ XR (Fullerton, Calif.). 50 frames of cells were counted and the number of viable cells was determined. The cells were then diluted to 0.25 million cells per ml, and centrifuged at 200 rcf for 5 minutes. The media was removed and the cells were reconstituted in fresh media for plating. The cells were plated at 20 μl per well on the PerkinElmer® Flexprop PLUS in Low Volume 384 Well White Tissue Culture Plates (Corning) with a final cell density of 5K cells per well. The plates were incubated overnight at 37° Celsius, 5% CO2.
On the second day, the compound plates were prepared, the cells were treated with compound and the pAkt reaction mix was added to the cell lysate. 384 well compound plates were prepared containing 1 μl of compound per well starting at 5 mM and diluted 1:2 across the row, resulting in a 22 well serial dilution. 39 μl of growth media was added to the compound plate in rows 1-22 using the PerkinElmer® Flexprop PLUS resulting in a DMSO concentration of 2.5%. The cell plates and diluted compound plates were put onto the VELOCITY11™ VPREP™ 384 ST where the compound plate was mixed and 5 μl of serially diluted compound or controls was added to the cell plate. The final concentration of the compounds was 25 μM serially diluted to 11.9 pM in 0.5% DMSO. The cell plates were then incubated with compound for two hours at 37° Celsius, 5% CO2. After two hours, the media in the cell plates was aspirated using the BioTek® ELx405HT plate washer (Winooski, Vt.) removing the majority of media and compound without disturbing the adherent U87 cells. The following assay reagents are components of the SureFire® Akt (Ser 473) Phosphorylation 50K Point Kit (TGR BioSciences, Adelaide, Australia) and an IgG Detection Kit (PerkinElmer, Waltham, Mass.). 5 μl of 1× Lysis Buffer was added to each well using the PerkinElmer® Flexprop PLUS. The plates were then incubated at room temperature on a shaker for ten minutes. The AlphaScreen® reaction was prepared under low light conditions (subdued or green light) including p-Akt (Ser 473) Reaction Buffer, Dilution Buffer, Activation Buffer, Acceptor Beads and Donor Beads at a ratio of 40:20:10:1:1 respectively. The AlphaScreen® reaction was added to the cell lysate at 6 μl per well using the PerkinElmer® Flexprop PLUS. The plates were placed in a humid environment to reduce edge effects and incubated overnight at room temperature with restricted air flow in the dark.
On the final day of the experiment, the plates were read on the PerkinElmer® EnVision™ 2103 Multilable Reader using the standard AlphaScreen® readout. The POC is calculated and the data is analyzed to report the IC50 IP for pAkt at Serine 473.
Activity data for the compounds tested in the PI3K cell based Akt assay is provided in Table 1 under the column heading U87

Sequence of PI3Kα (P42336 whole entry): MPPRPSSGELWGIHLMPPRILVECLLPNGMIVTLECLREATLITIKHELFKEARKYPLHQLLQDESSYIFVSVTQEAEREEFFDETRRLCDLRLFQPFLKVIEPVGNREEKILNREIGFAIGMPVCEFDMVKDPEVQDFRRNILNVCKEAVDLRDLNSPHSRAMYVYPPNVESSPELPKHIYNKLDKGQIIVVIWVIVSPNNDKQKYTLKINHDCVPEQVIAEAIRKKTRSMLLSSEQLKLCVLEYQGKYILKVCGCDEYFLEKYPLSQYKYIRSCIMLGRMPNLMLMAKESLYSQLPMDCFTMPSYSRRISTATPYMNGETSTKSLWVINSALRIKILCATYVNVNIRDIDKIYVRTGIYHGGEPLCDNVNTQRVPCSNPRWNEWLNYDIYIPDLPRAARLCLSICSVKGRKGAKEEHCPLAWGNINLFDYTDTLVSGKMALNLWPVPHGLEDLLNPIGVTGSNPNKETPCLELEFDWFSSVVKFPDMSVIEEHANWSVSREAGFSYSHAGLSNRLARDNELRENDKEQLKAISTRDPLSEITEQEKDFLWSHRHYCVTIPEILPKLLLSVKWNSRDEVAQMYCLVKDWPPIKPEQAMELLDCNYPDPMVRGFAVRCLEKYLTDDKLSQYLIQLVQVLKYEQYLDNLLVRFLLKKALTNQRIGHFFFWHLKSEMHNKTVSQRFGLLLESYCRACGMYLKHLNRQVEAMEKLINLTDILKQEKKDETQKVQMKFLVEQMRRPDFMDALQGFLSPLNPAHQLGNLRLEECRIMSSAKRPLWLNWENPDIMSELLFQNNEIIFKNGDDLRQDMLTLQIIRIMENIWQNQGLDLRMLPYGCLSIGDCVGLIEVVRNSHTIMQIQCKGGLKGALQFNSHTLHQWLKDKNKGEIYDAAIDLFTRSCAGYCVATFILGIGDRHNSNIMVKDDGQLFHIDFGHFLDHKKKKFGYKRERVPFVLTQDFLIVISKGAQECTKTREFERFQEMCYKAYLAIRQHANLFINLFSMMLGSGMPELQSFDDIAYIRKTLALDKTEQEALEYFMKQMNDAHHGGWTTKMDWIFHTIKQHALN
Sequence of PI3Kα (P27986 whole entry partner): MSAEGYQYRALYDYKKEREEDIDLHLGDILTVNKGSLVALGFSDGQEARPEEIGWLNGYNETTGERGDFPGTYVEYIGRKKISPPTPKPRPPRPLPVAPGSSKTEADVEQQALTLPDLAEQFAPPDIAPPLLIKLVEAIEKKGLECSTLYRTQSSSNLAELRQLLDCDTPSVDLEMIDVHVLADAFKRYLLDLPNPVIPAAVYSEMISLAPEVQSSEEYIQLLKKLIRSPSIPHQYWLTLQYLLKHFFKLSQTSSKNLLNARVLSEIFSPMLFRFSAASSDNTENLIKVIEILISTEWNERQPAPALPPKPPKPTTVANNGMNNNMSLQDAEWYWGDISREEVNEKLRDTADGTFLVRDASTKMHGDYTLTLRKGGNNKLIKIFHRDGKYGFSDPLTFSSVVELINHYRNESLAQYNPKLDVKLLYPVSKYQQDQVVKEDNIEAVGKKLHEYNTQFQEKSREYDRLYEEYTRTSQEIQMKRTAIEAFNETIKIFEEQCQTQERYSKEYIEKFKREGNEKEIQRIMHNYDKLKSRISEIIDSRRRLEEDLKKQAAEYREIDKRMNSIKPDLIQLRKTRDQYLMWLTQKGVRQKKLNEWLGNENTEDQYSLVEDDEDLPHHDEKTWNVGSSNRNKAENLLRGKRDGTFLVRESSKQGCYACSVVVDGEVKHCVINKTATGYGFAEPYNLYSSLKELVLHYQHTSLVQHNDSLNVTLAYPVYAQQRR

SMILES | IC50 (PI3Kα) [nM] | IC50 [1] [nM]
O=S(=O)(Nc1cc(-c2cnc3ccccn23)cnc1Cl)c1ccc(F)cc1 [Example 3, N-(2-Chloro-5-imidazo[1,2-a]pyridin-3-yl-3-pyridinyl)-4-fluorobenzenesulfonamide] | 30 | 
Cc1ccn2c(-c3cnc(Cl)c(NS(=O)(=O)c4ccc(F)cc4)c3)cnc2c1 [Example 4, N-(2-Chloro-5-(7-methylimidazo[1,2-a]pyridin-3-yl)-3-pyridinyl)-4-fluorobenzenesulfonamide] | 13 | 
Cc1nc2ccc(Br)cn2c1-c1cnc(Cl)c(NS(=O)(=O)c2ccc(F)cc2)c1 [Example 5, N-(5-(6-Bromo-2-methylimidazo[1,2-a]pyridin-3-yl)-2-chloro-3-pyridinyl)-4-fluorobenzenesulfonamide] | 16 | 1220
O=S(=O)(Nc1cc(-c2cnc3ccc(Br)cn23)cnc1Cl)c1ccc(F)cc1 [Example 6, N-(5-(6-Bromoimidazo[1,2-a]pyridin-3-yl)-2-chloro-3-pyridinyl)-4-fluorobenzenesulfonamide] | 14 | 208
O=S(=O)(Nc1cc(-c2cnc3ccc(-c4ccncc4)cn23)cnc1Cl)c1ccc(F)cc1 [Example 7, N-(2-Chloro-5-(6-(4-pyridinyl)imidazo[1,2-a]pyridin-3-yl)-3-pyridinyl)-4-fluorobenzenesulfonamide] | 5 | 42
O=S(=O)(Nc1cc(-c2cnc3ccc(-c4cccnc4)cn23)cnc1Cl)c1ccc(F)cc1 [Example 8, N-(2-Chloro-5-(6-(3-pyridinyl)imidazo[1,2-a]pyridin-3-yl)-3-pyridinyl)-4-fluorobenzenesulfonamide] | 4 | 83
O=S(=O)(Nc1cc(-c2cnc3ccc(N4CCOCC4)cn23)cnc1Cl)c1ccc(F)cc1 [Example 9, N-(2-Chloro-5-(6-(4-morpholinyl)imidazo[1,2-a]pyridin-3-yl)-3-pyridinyl)-4-fluorobenzenesulfonamide] | 6 | 76
COc1cc(-c2cnc3ccccn23)cnc1OC [Example 10, 3-(5,6-Dimethoxy-3-pyridinyl)imidazo[1,2-a]pyridine] | 15700 | > 25000
COc1cc(-c2cnc3ccc(Br)cn23)cnc1OC [Example 11, 6-Bromo-3-(5,6-dimethoxy-3-pyridinyl)imidazo[1,2-a]pyridine] | 1500 | 4980
COc1cc(-c2cnc3ccc(-c4ccncc4)cn23)cnc1OC [Example 12, 3-(5,6-Dimethoxy-3-pyridinyl)-6-(4-pyridinyl)imidazo[1,2-a]pyridine] | 861 | 2190
COc1cc(-c2cnc3ccc(N4CCOC4=O)cn23)cnc1OC [Example 13, 3-(3-(5,6-Dimethoxy-3-pyridinyl)imidazo[1,2-a]pyridin-6-yl)-1,3-oxazolidin-2-one] | 4670 | > 25000
COc1cc(-c2cnc3ccc(N4CCOCC4)cn23)cnc1OC [Example 16, 3-(5,6-Dimethoxy-3-pyridinyl)-6-(4-morpholinyl)imidazo[1,2-a]pyridine] |  | 3990
CN(C)S(=O)(=O)Nc1cc(-c2cnc3ccc(-c4ccncc4)cn23)cnc1Cl [Example 18, N-(2-Chloro-5-(6-(pyridin-4-yl)imidazo[1,2-a]pyridin-3-yl)pyridin-3-yl)dimethylaminosulfonamide] |  | 7
CN(C)S(=O)(=O)Nc1cc(-c2cnc3ccc(-c4ccnc(C(F)(F)F)c4)cn23)cnc1Cl [Example 19, N-(2-Chloro-5-(6-(2-(trifluoromethyl)pyridin-4-yl)imidazo[1,2-a]pyridin-3-yl)pyridin-3-yl)dimethylaminosulfonamid] |  | 9
CS(=O)(=O)Nc1cc(-c2cnc3cc(-c4cccnc4)ccn23)cnc1Cl [Example 20, N-(2-Chloro-5-(7-(pyridin-3-yl)imidazo[1,2-a]pyridin-3-yl)pyridin-3-yl)methanesulfonamide] |  | 32
CN(C)S(=O)(=O)Nc1cc(-c2cnc3cc(-c4ccncc4)ccn23)cnc1Cl [Example 21, N′-(2-Chloro-5-(7-(4-pyridinyl)imidazo[1,2-a]pyridin-3-yl)-3-pyridinyl)-N,N-dimethylsulfamide] |  | 281
CN(C)S(=O)(=O)Nc1cc(-c2cnc3cc(-c4cccnc4)ccn23)cnc1Cl [Example 22, N′-(2-Chloro-5-(7-(3-pyridinyl)imidazo[1,2-a]pyridin-3-yl)-3-pyridinyl)-N,N-dimethylsulfamide] |  | 168
Cc1cc2ncc(-c3cnc(Cl)c(NS(=O)(=O)N(C)C)c3)n2cc1-c1ccncc1 [Example 23, N′-(2-Chloro-5-(7-methyl-6-(4-pyridinyl)imidazo[1,2-a]pyridin-3-yl)-3-pyridinyl)-N,N-dimethylsulfamide] |  | 8
O=S(=O)(Nc1cc(-c2cnc3ccc(Cl)nn23)cnc1Cl)c1ccc(F)cc1 [Example 25, N-(2-Chloro-5-(6-chloroimidazo[1,2-b]pyridazin-3-yl)pyridin-3-yl)-4-fluorobenzenesulfonamide] | 47 | 
